The text below walks through data of US20240287138A1, “CYCLIC PEPTIDES FOR INHIBITING TNF RECEPTOR 1 ACTIVITY” (Merck Sharp & Dohme LLC, priority 2023, published 2024).

Read-outs that look alike come from different tables or passages of the source. Numbered stars: 1 amine (or outer) side, 2 acyl side, 3 side chain; on linkers, the order of the positions; unused ones are H or OH. Bridge positions count the residues as written; N and C are the ends. Square brackets hold non-standard residues; d marks the D form. Peptide text beside a SMILES is read from it. Trp(βS-Me,7-OMe) = COc1cccc2c([C@H](C)[C@H](N)C(=O)O)c[nH]c12; Morpholine(3S-CO,6,6-Me2) = CC1(C)CN[C@H](C(=O)O)CO1; Trp(βS-Me) = C[C@@H](c1c[nH]c2ccccc12)[C@H](N)C(=O)O; Phe(2-F,4-COOH) = N[C@@H](Cc1ccc(C(=O)O)cc1F)C(=O)O; Trp(7-CN) = N#Cc1cccc2c(C[C@H](N)C(=O)O)c[nH]c12; Trp(7-Cl) = N[C@@H](Cc1c[nH]c2c(Cl)cccc12)C(=O)O; Phe(4-CONH2) = NC(=O)c1ccc(C[C@H](N)C(=O)O)cc1; Phe(4-COOH) = N[C@@H](Cc1ccc(C(=O)O)cc1)C(=O)O; 4Pal(3S-Me) = C[C@@H](c1ccncc1)[C@H](N)C(=O)O; Trp(7-aza) = N[C@@H](Cc1c[nH]c2ncccc12)C(=O)O; Phe(4-CH2NH2) = NCc1ccc(C[C@H](N)C(=O)O)cc1; Pip(5R-OH) = O=C(O)[C@@H]1CC[C@@H](O)CN1; X1 = O=C([C@@H]1CC[C@H](N[*:1])C1)[*:2]; 2Nal = N[C@@H](Cc1ccc2ccccc2c1)C(=O)O; 4Pal = N[C@@H](Cc1ccncc1)C(=O)O; dHyp = O=C(O)[C@H]1C[C@H](O)CN1; Cit = NC(=O)NCCC[C@H](N)C(=O)O; Ahp(2) = CCCCC[C@H](N)C(=O)O; NEtAla = CCN[C@@H](C)C(=O)O; αMeS = C[C@](N)(CO)C(=O)O; Nle = CCCC[C@H](N)C(=O)O; Sar = CNCC(=O)O

One test concerns the target T1, human TNFR2 ECD protein (Homo sapiens, UniProt P20333).
T1 construct: HRV 3C protease cleavage site (C); 6His (C, cleaved yes); made in house; host or cells: Sf21 insect cells (baculovirus), secreted
T1 sequence (P20333 23-257): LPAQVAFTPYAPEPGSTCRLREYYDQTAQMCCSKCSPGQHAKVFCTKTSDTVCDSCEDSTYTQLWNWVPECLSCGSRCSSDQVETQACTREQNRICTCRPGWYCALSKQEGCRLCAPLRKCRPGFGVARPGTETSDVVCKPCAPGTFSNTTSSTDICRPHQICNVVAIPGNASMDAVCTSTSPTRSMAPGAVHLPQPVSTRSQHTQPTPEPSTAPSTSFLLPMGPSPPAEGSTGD
Briefly: SPR off-target binding (selectivity) to human TNFR2 ECD. Put shortly: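 Read-out: kon, koff and derived affinity from SPR response units. Human TNFR1 and TNFR2 ECD, Avi-tag biotinylated with BirA, captured on a streptavidin surface; peptides injected under laminar flow in HEPES-saline with EDTA, P20 and 2% DMSO.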

In test [1] the target is T2, human soluble TNFR1 (sTNFR1) (Homo sapiens, UniProt P19438).
T2 construct: made in house; host or cells: Sf21 (baculovirus)
T2 sequence (P19438 with tags, fused parts or gaps): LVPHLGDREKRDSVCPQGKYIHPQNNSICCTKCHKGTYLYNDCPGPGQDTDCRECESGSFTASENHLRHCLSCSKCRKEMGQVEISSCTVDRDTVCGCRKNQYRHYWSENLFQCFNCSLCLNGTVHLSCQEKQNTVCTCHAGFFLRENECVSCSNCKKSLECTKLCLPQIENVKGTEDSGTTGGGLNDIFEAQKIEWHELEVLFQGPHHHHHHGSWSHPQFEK
Briefly: Human sTNFR1-peptide displacement assay (LanthaScreen Eu TR-FRET binding assay). Conditions: for IC50: weaker binders, 10 pts titration, 4-parameter logistic model, read-out: TR-FRET, IC50. The gist of the method: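 Readout is the 665/615 nm TR-FRET ratio (Eu anti-His donor, streptavidin-Alexa647 acceptor), normalized to DMSO and saturating displacer, fit by Morrison-based five-parameter logistic for Kd^app. His-tagged sTNFR1 (1-211) prebound to 100 nM biotinylated peptide SEQ ID NO.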
For orientation: TR-FRET usually uses a lanthanide donor and a delayed reading to cut background.

The mark [2] stands for this setting: biotinylated human TNFR2 ECD on streptavidin chip, read-out: SPR hTNFR2 KD.
The mark [3] stands for this setting: displacement of biotinylated peptide SEQ ID NO. 1 from sTNFR1.
The mark [4] stands for this setting: displacement of biotinylated peptide SEQ ID NO. 1 from sTNFR1, 20 point titration, 5-parameter fit based on Morrison equation (tight binding), read-out: TR-FRET Kd^app.

As to `C[C@@H](c1c[nH]c2ccccc12)[C@@H]1NC(=O)CN(C)C(=O)[C@H](Cc2ccc(CN)cc2)NC(=O)[C@H](Cc2ccc(C(=O)O)cc2)NC(=O)[C@](C)(CO)NC(=O)[C@H](Cc2ccc3ccccc3c2)NC(=O)[C@H](Cc2ccc(CN)cc2)NC(=O)[C@H](CC(N)=O)NC(=O)[C@H]2CCCN2C(=O)[C@H]([C@@H](C)c2c[nH]c3ccccc23)NC(=O)[C@H](CO)NC(=O)[C@H](Cc2ccc(CN)cc2)NC(=O)[C@H](CCCNC(N)=O)NC(=O)CSC[C@@H](C(N)=O)NC1=O` [SEQ ID NO. 206] ({CH2CO}-[Cit][Phe(4-CH2NH2)]S[Trp(βS-Me)][dP]N[Phe(4-CH2NH2)][2Nal][αMeS][Phe(4-COOH)][Phe(4-CH2NH2)][Sar][Trp(βS-Me)]C-NH2; thioether N-14), the Kd on human TNFR2 ECD protein (setting [2]) is over 1000 nM. For the same molecule, in test [1] (setting [3]), the IC50 (in general, the concentration that inhibits the measured activity by half) was found to be 26 nM.
As for `CCCC[C@@H]1NC(=O)CSC[C@@H](C(N)=O)NC(=O)[C@H]([C@@H](C)c2c[nH]c3c(OC)cccc23)NC(=O)CN(C)C(=O)[C@H](Cc2ccc(O)cc2)NC(=O)[C@H](Cc2ccc(C(=O)O)cc2)NC(=O)[C@](C)(CO)NC(=O)[C@H](Cc2c[nH]c3c(Cl)cccc23)NC(=O)[C@H](Cc2ccncc2)NC(=O)[C@H](CC(N)=O)NC(=O)[C@H](C)N(CC)C(=O)[C@H](Cc2c[nH]c3ccccc23)NC(=O)[C@@H]2COC(C)(C)CN2C(=O)[C@H](Cc2ccncc2)NC1=O` [SEQ ID NO. 183] ({CH2CO}-[Nle][4Pal][Morpholine(3S-CO,6,6-Me2)]W[NEtAla]N[4Pal][Trp(7-Cl)][αMeS][Phe(4-COOH)]Y[Sar][Trp(βS-Me,7-OMe)]C-NH2; thioether N-14), the Kd at human TNFR2 ECD protein (setting [2]) was over 1000 nM; in test [1] (setting [4]), 0.17 nM. The IC50 in test [1] (setting [3]) turned out to be 0.5 nM.
`CCCC[C@@H]1NC(=O)[C@@H]2CC[C@@H](C2)NC(=O)[C@H]([C@@H](C)c2c[nH]c3c(OC)cccc23)NC(=O)CN(C)C(=O)[C@H](Cc2ccc(C(=O)O)cc2F)NC(=O)[C@H](Cc2ccc(C(N)=O)cc2)NC(=O)[C@](C)(CO)NC(=O)[C@H](Cc2c[nH]c3c(Cl)cccc23)NC(=O)[C@H](Cc2ccc(C(=O)O)cc2F)NC(=O)[C@H](CC(N)=O)NC(=O)[C@H]2C[C@H](O)CN2C(=O)[C@H](Cc2c[nH]c3ccccc23)NC(=O)[C@@H]2CC[C@@H](O)CN2C(=O)[C@H](Cc2ccncc2)NC1=O` [SEQ ID NO. 41] (cyclo([4Pal][Pip(5R-OH)]W[dHyp]N[Phe(2-F,4-COOH)][Trp(7-Cl)][αMeS][Phe(4-CONH2)][Phe(2-F,4-COOH)][Sar][Trp(βS-Me,7-OMe)][X1][Nle])): the Kd was over 1000 nM on human TNFR2 ECD protein and 0.07 nM in test [1].
Take `CCCCC[C@@H]1NC(=O)[C@@H]2CC[C@@H](C2)NC(=O)[C@H]([C@@H](C)c2c[nH]c3c(OC)cccc23)NC(=O)CN(C)C(=O)[C@H](Cc2ccc(C(N)=O)cc2)NC(=O)[C@H](Cc2ccc(C(N)=O)cc2)NC(=O)[C@](C)(CO)NC(=O)[C@H](Cc2c[nH]c3c(C#N)cccc23)NC(=O)[C@H](Cc2ccc(C(=O)O)cc2)NC(=O)[C@H](CC(N)=O)NC(=O)[C@H]2C[C@H](O)CN2C(=O)[C@H](Cc2c[nH]c3ccccc23)NC(=O)[C@H](CCC(N)=O)NC(=O)[C@H]([C@@H](C)c2ccncc2)NC1=O` [SEQ ID NO. 70] (cyclo([Ahp(2)][4Pal(3S-Me)]QW[dHyp]N[Phe(4-COOH)][Trp(7-CN)][αMeS][Phe(4-CONH2)][Phe(4-CONH2)][Sar][Trp(βS-Me,7-OMe)][X1])): the values for the Kd (at human TNFR2 ECD protein; in test [1]) were over 1000 nM and 0.12 nM, respectively.
For `CCCC[C@@H]1NC(=O)[C@@H]2CC[C@@H](C2)NC(=O)[C@H]([C@@H](C)c2c[nH]c3c(OC)cccc23)NC(=O)CN(C)C(=O)[C@H](Cc2ccc(C(N)=O)cc2)NC(=O)[C@H](Cc2ccc(C(N)=O)cc2)NC(=O)[C@](C)(CO)NC(=O)[C@H](Cc2c[nH]c3c(C#N)cccc23)NC(=O)[C@H](Cc2ccc(C(=O)O)cc2)NC(=O)[C@H](CC(N)=O)NC(=O)[C@H]2C[C@H](O)CN2C(=O)[C@H](Cc2c[nH]c3ncccc23)NC(=O)[C@@H]2CC[C@@H](O)CN2C(=O)[C@H](Cc2ccncc2)NC1=O` [SEQ ID NO. 254] (cyclo([4Pal][Pip(5R-OH)][Trp(7-aza)][dHyp]N[Phe(4-COOH)][Trp(7-CN)][αMeS][Phe(4-CONH2)][Phe(4-CONH2)][Sar][Trp(βS-Me,7-OMe)][X1][Nle])), the Kd is over 1000 nM at human TNFR2 ECD protein (setting [2]) and 0.06 nM in test [1] (setting [4]).
